Experimental data as given in patent US11298391B1, “Topical skin health improvement compositions and administrations thereof” (Lorenol Laboratories, Inc., priority 2017, dated 2022).

System: PGE-2
Experiment: PGE-2 increase on UVR exposure: control, Retinol and Skin Therapeutic Composition 5 (FIG. 2)
Type: in vivo
Conditions: in the presence of UVR
Excerpt: FIG. 2 illustrates an implementation of the reduction and/or inhibition of skin inflammation as a result of topical application of Skin Therapeutic Composition 5.
A night serum may be prepare including Skin Therapeutic Composition 5. FIG. 2 illustrates an implementation of the reduction and/or inhibition of skin inflammation as a result of topical application of Skin Therapeutic Composition 5. […] Skin Therapeutic 5 encourages collagen growth and inhibits the overproduction of PGE-2 when exposed to UVR.

For CC1=C(/C=C/C(C)=C/C=C/C(C)=C/CO)C(C)(C)CCC1 [Retinol], the PGE-2 change was “increase in PGE-2”.
